# ChEMBL document CHEMBL1201862, “PubChem BioAssay data set” (2004)
# “And” between values parts separate entries of the source, which are not always exact repeats. Identical values can stand only once. The source made the active and inactive calls.
# Key:
# Hexokinase = biological target: T1, Hexokinase (Trypanosoma brucei, UniProt Q38C41); test: Confirmation assay for inhibitors of Trypanosoma brucei hexokinase 1-Analogue-first series. [Related pubchem assays (depositor defined):AID1430, AID1632, AID2516, AID2560, AID2579, AID2600, AID449725, AID492951]; type: functional
# T1 sequence (Q38C41 whole entry): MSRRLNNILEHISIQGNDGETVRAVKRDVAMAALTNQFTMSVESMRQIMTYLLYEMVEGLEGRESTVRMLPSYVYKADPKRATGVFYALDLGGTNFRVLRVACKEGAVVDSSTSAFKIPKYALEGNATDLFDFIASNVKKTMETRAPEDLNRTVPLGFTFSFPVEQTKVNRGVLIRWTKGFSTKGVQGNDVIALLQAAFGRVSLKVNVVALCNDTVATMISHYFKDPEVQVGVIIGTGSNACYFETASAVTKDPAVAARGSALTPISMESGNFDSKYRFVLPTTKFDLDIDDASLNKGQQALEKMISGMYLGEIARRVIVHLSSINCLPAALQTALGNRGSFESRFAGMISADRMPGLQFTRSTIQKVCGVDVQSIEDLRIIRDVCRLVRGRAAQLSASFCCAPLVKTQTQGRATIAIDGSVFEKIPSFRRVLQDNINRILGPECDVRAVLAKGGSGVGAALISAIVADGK
# [1] = biological target: T2, Mannose-6-phosphate isomerase (Homo sapiens, UniProt P34949); test: Confirmation of compounds inhibiting phosphomannose isomerase (PMI) via a fluorescence intensity assay using a high concentration of mannose 6-phosphate. [Related pubchem assays (depositor defined):AID1209, AID1220, AID1545, AID1553, AID1620]
# T2 sequence (P34949 whole entry): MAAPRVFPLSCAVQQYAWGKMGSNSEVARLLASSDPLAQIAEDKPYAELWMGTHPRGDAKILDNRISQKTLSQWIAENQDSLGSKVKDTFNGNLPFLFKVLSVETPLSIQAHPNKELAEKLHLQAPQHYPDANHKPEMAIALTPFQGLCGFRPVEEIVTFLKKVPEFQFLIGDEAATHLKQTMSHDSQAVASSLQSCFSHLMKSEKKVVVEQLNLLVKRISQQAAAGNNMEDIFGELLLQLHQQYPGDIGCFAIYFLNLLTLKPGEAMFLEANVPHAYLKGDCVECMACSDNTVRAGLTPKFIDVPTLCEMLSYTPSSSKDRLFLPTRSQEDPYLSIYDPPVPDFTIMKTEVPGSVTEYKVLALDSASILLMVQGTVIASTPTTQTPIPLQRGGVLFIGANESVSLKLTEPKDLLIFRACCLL
# [2] = biological target: T2, Mannose-6-phosphate isomerase; test: inhibitors of human PMI, primary screen, biochemical, fluorescence intensity, coupled assay (AID 1209)
# [3] = biological target: T3, Mitochondrial peptide methionine sulfoxide reductase (Bos taurus, UniProt P54149); test: Absorbance-based biochemical high throughput dose response assay for activators of Methionine sulfoxide reductase A (MsrA).; type: functional
# T3 sequence (P54149 whole entry): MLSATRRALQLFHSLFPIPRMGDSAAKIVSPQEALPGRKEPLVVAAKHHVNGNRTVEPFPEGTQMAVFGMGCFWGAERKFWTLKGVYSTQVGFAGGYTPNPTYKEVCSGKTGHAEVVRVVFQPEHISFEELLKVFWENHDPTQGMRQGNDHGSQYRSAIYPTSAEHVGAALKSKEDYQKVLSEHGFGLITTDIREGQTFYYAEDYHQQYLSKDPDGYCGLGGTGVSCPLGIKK
# [4] = biological target: Glucose-6-phosphate 1-dehydrogenase (Homo sapiens, UniProt P11413); test: human G6PD enzyme inhibitors, dose response, selectivity assay for P. falciparum G6PD inhibitor project, biochemical, fluorescence (AID 504792); type: functional
# [5] = biological target: T2, Mannose-6-phosphate isomerase; test: PMI enzyme inhibitors, confirmation, biochemical, fluorescence intensity (AID 1535)
# Phosphomannomutase 2 = Phosphomannomutase 2 (Homo sapiens, UniProt O15305); test: Counter screen SAR assay for PMM2 inhibitors via a fluorescence intensity assay. [Related pubchem assays (depositor defined):AID1545, AID1574]
# [6] = biological target: Eukaryotic translation initiation factor 4E (Mus musculus, UniProt P63073); test: eIF4E–eIF4G protein interaction inhibitors, dose response, biochemical, TR-FRET (AID 855); type: functional;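 note: potency for disrupting eIF4E binding to eIF4GI seen as loss of FRET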
# Large T antigen = Large T antigen (Simian virus 40, UniProt P03070); type: functional, Betapolyomavirus macacae;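 note: Confirmatory-stage PubChem screen for compounds that inhibit SV40 T antigen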
# [7] = biological target: T2, Mannose-6-phosphate isomerase; test: human PMI inhibitors, high substrate, primary screen, biochemical, fluorescence intensity, high mannose 6-phosphate (AID 1220)
# [8] = biological target: DNA dC->dU-editing enzyme APOBEC-3G (Homo sapiens, UniProt Q9HC16); test: Dose Response confirmation of small molecule APOBEC3G DNA Deaminase Inhibitors via a fluorescence-based single-stranded DNA deaminase assay. [Related pubchem assays (depositor defined):AID493012, AID493028]; type: functional
# [9] = biological target: Phosphoethanolamine/phosphocholine phosphatase (Homo sapiens, UniProt Q8TCT1); test: SAR assay for compounds that inhibit PHOSPHO1. [Related pubchem assays (depositor defined):AID1545, AID1565, AID1574]
# [10] = biological target: Acyl-homoserine lactone acylase PvdQ (Pseudomonas aeruginosa (strain LESB58), UniProt Q9I194); test: P. aeruginosa PvdQ acylase inhibitors, dose response, biochemical, fluorescence, plate reader and imaging, cherry-picks (AID 493231)
# [11] = Luminescence Cell-Based Dose Confirmation HTS to Identify Activators of 5'UTR Stem-Loop Driven Alpha-Synuclein mRNA Translation in H4 Neuroglioblastoma Cells. [Related pubchem assays: 1829 (Project Summary), 1814 (Primary HTS)]; type: functional
# [12] = Luminescence Cell-Based Dose Response HTS to Identify Activators of Luciferase Translation or Activity in H4-C Neuroglioblastoma Cells. [Related pubchem assays: 1829 (Project Summary), 1814 (Primary HTS)]; type: functional
# [13] = Luminescence Cell-Based Dose Response HTS to Identify Activators of 5'UTR Stem-Loop Driven Prion Protein mRNA Translation in H4-C Neuroglioblastoma Cells. [Related pubchem assays: 1829 (Project Summary), 1814 (Primary HTS)]; type: functional
# H4 = test: Luminescence Cell-Based Dose Response HTS to Identify Activators of 5'UTR Stem-Loop Driven Prion Protein mRNA Translation in H4 Neuroglioblastoma Cells. [Related pubchem assays: 1829 (Project Summary), 1814 (Primary HTS)]; type: functional; settings: Homo sapiens
# [14] = Luminescence Cell-Based Dose Retest to Confirm Activators of 5'UTR Stem-Loop Driven Alpha-Synuclein mRNA Translation in H4 Neuroglioblastoma Cells. [Related pubchem assays (depositor defined):AID1813, AID1829]; type: functional
# [15] = Luminescence Cell-Based Dose Response HTS to Identify Activators of Luciferase Translation or Activity in H4 […] Cells. [Related pubchem assays: 1829 (Project Summary), 1814 (Primary HTS)]; type: functional
# [16] = biological target: Nucleotide-binding oligomerization domain-containing protein 2 (Homo sapiens, UniProt Q9HC29); test: NOD2 signaling inhibitors, cell-based, luminescence, uHTS, HEK293 (AID 1566); type: functional
# HEK293 [17] = test: NOD2 signaling inhibitors in MDP-stimulated cells, cell-based, uHTS, luminescence (AID 2001); type: functional; settings: Homo sapiens
# Paired box protein Pax-8 = Paired box protein Pax-8 (Homo sapiens, UniProt Q06710); test: inhibitors of PAX8-driven TPO luciferase reporter, dose response, RMG-I cells, cherry-pick (AID 687027); type: functional, cell-based;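 note: luciferase reporter driven by Pax8 target thyroperoxidase promoter measured by SteadyGlo luminescence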
# [18] = biological target: Scavenger receptor class B member 1 (Mus musculus, UniProt Q61009); test: inhibitors of SR-BI mediated HDL lipid uptake, dose response, ldlA[mSR-BI] cells, fluorescence, cherry pick (AID 493194); type: functional, cell-based;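 note: cellular uptake of fluorescent DiI-labeled HDL measured as cell fluorescence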
# HEK293 [19] = test: NOD1 signaling inhibitors, primary screen, cell-based, luminescence, uHTS (AID 1578); type: functional; settings: Homo sapiens
# INS1 = test: beta cell apoptosis inhibitors, cytokine rescue, dose response, luminescence, retest (AID 449756); type: functional, cell-based; settings: Rattus norvegicus;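 note: cell death triggered by IL-1 beta plus TNF-alpha plus IFN-gamma mixture; protective hits raise ATP signal compared with cytokine alone wells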
# HEK293 [20] = test: cells; type: functional, cell-based; settings: Homo sapiens
# HEK293 [21] = test: cells; type: functional, cell-based; settings: Homo sapiens; remark: listed apart in the source
# HEK293 [22] = test: cells; type: functional, cell-based; settings: Homo sapiens; remark: listed apart in the source
# [23] = biological target: T4, Tyrosine-protein phosphatase non-receptor type 7 (Homo sapiens, UniProt P35236); test: SAR analysis of chemical inhibitors of HePTP using a Fluorescent assay - Set 2. [Related pubchem assays (depositor defined):AID1059, AID1077, AID1661, AID2085, AID521]; type: functional
# T4 sequence (P35236 whole entry): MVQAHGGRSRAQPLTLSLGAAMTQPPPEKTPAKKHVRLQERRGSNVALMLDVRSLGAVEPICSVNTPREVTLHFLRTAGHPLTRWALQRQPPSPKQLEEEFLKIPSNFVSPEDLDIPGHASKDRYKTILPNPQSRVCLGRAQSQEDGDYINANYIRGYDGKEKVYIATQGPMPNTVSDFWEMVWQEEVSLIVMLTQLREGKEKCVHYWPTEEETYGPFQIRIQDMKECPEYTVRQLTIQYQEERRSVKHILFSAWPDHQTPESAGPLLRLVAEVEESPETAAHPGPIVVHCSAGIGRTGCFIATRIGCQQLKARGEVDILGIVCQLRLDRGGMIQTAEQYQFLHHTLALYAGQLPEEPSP
# [24] = biological target: Dual specificity protein phosphatase 3 (Homo sapiens, UniProt P51452); test: SAR VHR1 Fluorescent Assay for In Vitro dose response studies Set 2. [Related pubchem assays (depositor defined):AID1654, AID1661, AID1878]; type: functional
# [25] = biological target: Intestinal-type alkaline phosphatase (Homo sapiens, UniProt P09923); test: Dose Response confirmation of uHTS hits from a small molecule inhibitors of human intestinal alkaline phosphatase via a luminescent assay. [Related pubchem assays (depositor defined):AID2544, AID2574]; type: functional
# Sequence of Intestinal-type alkaline phosphatase (P09923 whole entry): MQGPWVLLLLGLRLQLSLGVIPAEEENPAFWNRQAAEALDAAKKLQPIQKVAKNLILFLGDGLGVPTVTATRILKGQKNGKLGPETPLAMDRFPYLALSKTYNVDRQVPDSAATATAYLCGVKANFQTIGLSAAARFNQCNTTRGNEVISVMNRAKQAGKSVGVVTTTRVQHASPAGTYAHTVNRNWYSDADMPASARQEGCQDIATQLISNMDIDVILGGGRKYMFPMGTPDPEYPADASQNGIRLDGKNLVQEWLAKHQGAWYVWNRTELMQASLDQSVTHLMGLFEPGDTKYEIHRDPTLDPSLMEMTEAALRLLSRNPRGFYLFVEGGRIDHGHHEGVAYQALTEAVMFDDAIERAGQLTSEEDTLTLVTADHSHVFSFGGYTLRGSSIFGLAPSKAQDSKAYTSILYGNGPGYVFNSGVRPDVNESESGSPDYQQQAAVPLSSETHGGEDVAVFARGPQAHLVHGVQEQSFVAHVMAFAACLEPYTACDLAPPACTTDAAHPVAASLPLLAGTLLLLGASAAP
# Sequence of Phosphomannomutase 2 (O15305 whole entry): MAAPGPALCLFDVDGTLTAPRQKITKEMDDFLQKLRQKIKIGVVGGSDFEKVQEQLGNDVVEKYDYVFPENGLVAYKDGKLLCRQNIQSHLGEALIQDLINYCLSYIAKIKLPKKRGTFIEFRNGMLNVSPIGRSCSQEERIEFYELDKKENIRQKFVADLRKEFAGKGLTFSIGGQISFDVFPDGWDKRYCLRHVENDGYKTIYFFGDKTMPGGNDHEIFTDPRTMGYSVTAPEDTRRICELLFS
# Sequence of Phosphoethanolamine/phosphocholine phosphatase (Q8TCT1 whole entry): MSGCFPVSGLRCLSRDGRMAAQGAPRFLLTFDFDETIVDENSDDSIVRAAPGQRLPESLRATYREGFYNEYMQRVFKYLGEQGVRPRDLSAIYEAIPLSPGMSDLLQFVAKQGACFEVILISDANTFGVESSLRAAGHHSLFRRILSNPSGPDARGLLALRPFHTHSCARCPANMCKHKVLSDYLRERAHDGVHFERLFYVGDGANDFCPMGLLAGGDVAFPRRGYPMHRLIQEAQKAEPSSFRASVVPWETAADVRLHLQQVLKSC
# Sequence of Dual specificity protein phosphatase 3 (P51452 whole entry): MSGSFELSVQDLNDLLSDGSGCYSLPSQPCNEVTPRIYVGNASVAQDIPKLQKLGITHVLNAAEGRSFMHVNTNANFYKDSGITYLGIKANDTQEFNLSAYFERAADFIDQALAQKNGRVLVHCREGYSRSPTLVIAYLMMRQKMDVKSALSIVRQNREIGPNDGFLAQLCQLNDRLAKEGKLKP
# Sequence of Eukaryotic translation initiation factor 4E (P63073 whole entry): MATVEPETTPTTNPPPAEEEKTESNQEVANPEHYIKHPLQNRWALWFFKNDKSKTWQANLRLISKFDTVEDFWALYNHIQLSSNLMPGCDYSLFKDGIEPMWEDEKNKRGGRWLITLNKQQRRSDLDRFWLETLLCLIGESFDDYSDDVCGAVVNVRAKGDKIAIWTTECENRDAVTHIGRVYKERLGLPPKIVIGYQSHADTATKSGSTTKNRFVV
# Sequence of Scavenger receptor class B member 1 (Q61009 whole entry): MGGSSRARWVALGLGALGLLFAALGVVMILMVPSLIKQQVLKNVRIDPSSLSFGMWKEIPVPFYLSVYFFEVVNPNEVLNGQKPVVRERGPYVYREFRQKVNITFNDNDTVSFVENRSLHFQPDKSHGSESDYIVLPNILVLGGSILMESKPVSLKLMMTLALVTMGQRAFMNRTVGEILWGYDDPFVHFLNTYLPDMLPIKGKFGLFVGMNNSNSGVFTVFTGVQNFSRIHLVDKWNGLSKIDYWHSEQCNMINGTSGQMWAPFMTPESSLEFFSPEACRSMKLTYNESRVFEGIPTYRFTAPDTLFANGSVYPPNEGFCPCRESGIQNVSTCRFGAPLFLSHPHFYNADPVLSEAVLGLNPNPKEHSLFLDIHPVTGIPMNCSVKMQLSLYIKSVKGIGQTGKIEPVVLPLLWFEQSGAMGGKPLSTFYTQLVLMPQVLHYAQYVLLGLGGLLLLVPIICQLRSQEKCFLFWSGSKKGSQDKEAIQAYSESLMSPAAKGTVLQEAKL
# Sequence of Paired box protein Pax-8 (Q06710 whole entry): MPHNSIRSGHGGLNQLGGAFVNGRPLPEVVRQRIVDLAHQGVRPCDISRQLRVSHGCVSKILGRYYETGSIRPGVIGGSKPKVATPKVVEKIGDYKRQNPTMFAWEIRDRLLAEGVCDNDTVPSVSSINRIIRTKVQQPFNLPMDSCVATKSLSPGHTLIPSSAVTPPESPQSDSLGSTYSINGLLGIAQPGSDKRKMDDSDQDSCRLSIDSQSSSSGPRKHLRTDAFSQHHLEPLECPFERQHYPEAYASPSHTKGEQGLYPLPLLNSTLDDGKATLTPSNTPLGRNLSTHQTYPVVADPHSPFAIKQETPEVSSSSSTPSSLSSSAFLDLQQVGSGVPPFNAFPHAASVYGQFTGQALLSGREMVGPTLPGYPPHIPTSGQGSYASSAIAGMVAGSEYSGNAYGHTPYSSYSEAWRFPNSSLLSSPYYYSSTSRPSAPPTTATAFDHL
# Sequence of Glucose-6-phosphate 1-dehydrogenase (P11413 whole entry): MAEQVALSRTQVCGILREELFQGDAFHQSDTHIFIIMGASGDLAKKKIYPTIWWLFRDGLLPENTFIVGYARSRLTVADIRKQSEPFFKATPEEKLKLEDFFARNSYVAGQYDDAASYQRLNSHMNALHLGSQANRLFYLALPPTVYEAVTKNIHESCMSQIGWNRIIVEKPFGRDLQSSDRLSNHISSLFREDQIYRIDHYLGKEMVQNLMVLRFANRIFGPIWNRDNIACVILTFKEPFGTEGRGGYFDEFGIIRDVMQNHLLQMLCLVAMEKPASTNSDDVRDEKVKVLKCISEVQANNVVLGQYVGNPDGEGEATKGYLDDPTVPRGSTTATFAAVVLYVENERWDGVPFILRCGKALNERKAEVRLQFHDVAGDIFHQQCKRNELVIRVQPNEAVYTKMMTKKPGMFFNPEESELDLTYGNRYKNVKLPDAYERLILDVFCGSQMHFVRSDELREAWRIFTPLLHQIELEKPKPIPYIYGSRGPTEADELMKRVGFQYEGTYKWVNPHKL
# Sequence of Nucleotide-binding oligomerization domain-containing protein 2 (Q9HC29 whole entry, the tested form may be a part): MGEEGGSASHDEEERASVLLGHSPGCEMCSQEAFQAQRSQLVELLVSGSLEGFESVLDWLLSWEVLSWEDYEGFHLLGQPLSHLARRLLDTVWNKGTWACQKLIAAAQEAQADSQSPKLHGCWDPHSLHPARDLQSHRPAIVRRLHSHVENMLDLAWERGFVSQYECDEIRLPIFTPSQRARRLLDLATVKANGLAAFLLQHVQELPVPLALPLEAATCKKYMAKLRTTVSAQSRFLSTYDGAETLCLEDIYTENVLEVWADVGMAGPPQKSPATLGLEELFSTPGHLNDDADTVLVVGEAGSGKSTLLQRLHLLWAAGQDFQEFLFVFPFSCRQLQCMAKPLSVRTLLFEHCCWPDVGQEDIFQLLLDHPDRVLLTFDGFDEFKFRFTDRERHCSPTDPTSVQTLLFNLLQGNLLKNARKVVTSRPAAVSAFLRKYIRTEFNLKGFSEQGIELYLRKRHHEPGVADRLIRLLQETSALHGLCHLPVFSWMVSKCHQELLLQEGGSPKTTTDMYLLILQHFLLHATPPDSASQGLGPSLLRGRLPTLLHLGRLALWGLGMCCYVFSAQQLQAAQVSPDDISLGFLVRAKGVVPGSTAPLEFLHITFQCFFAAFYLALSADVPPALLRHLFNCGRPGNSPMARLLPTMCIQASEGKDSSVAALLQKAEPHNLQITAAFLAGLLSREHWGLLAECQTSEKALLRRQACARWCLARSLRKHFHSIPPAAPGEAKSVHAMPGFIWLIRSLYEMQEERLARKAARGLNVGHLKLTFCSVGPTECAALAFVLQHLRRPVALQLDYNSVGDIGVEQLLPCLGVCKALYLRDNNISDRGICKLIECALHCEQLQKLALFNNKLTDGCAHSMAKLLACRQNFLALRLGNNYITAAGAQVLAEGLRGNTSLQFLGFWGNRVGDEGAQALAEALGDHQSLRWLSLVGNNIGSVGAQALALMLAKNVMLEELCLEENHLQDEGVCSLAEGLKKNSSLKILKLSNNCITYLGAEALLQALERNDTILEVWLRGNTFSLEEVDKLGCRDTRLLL
# Sequence of DNA dC->dU-editing enzyme APOBEC-3G (Q9HC16 whole entry): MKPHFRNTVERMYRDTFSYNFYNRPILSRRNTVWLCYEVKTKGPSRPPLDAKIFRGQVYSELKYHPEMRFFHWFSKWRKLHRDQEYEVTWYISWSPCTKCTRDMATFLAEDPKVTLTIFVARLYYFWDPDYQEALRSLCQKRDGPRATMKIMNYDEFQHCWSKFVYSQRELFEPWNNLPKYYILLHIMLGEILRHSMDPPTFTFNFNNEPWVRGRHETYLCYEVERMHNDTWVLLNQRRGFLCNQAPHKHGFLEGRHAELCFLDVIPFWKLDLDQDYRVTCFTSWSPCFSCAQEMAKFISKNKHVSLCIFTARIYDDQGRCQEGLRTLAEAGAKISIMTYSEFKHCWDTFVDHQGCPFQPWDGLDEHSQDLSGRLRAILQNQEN
compound,measurement,setting,value
CN(C)S(=O)(=O)c1cccc(-n2sc3ccccc3c2=O)c1,IC50,Hexokinase,7.63 µM (active)
same,IC50,[1],16.4 µM (active)
same,IC50,[2],5.25 µM (active)
same,EC50,[3],> 104 µM (inactive)
same,IC50,[4],12.4 µM (active)
same,IC50,[5],2.79 µM (active) and 7.06 µM (active)
same,IC50,Phosphomannomutase 2,13.5 µM (active) and 12.9 µM (active)
same,IC50,[6],13 µM (active)
same,IC50,Large T antigen,13.3 µM (active)
same,IC50,[7],11.7 µM (active)
same,IC50,[8],9.11 µM (active)
same,IC50,[9],495 nM (active) and 457 nM (active)
CC(C)N=C(NC#N)SCc1ccccc1F,AC50,[10],10.8 µM (active)
N#Cc1cc2c(nc1SCC(=O)Nc1ccc(Cl)cc1)C1CCN2CC1,EC50,[11],5.38 µM (active)
same,EC50,[12],2.33 µM (active)
same,EC50,[13],20.1 µM (active)
same,EC50,H4,> 120 µM (not active)
same,EC50,[14],2.86 µM (active)
same,EC50,[15],27.9 µM (active)
COc1ccc(NC(=O)c2c(Nc3ccccc3)sc(C(=O)c3ccc(F)cc3)c2N)cc1,EC50,[16],> 20 µM (inactive)
same,IC50,HEK293 [17],> 20 µM (inactive)
same,AC50,Paired box protein Pax-8,1.69 µM (active)
same,AC50,[18],2.46 µM (active)
same,EC50,HEK293 [19],> 20 µM (inactive)
same,AC50,INS1,2.91 µM (active)
same,IC50,HEK293 [20],> 20 µM (inactive)
same,IC50,HEK293 [21],> 20 µM (inactive)
same,IC50,HEK293 [22],> 20 µM (inactive)
CCOc1ccc(-n2c(N)c(C(=O)NCc3ccco3)sc2=S)cc1,IC50,[23],> 100 µM (inactive)
same,IC50,[24],> 100 µM (inactive)
O=C(Cc1coc2ccc3ccccc3c12)NCc1ccccc1,IC50,[25],> 100 µM (inactive)
